From publication PMC4941640 (Cancer cell, 2015)
Read-outs that look alike come from different tables or passages of the source.

Legend:
A549 cells [1] = assay: p62 modulation by immunofluorescence; assay type: cell-based
[2] = test system: HEK293T cells stably expressing TCRα-GFP; assay: cells; conditions: Homo sapiens, HEK-293T, read-out: EC50, accumulation of TCRα-GFP
PIK3C3 = PIK3C3 vs p97, dose titration
AMO-1 xenograft = conditions: after 2 cycles of treatment, qd4/3off
[3] = test system: HEK293 cells expressing GFPu; assay: cells; conditions: Homo sapiens, HEK293, read-out: EC50, accumulation of GFPu
HCT116 or A549 tumors = conditions: single administration, nude mice bearing HCT116 or A549 tumors
A549 cells [4] = assay: cells; conditions: Homo sapiens, A549, read-out: EC50, induction of CHOP protein
HCT 116 T688A xenografts = conditions: 90 mg/kg
DNA-PK [5] = target: T1, DNA-PK (Homo sapiens, UniProt P78527); conditions: A549 cells, 6 hr, nuclear phospho-H2AX
[6] = all dosing schedules tested, tumor-bearing mice, po
DNA-PK [7] = target: T1, DNA-PK; conditions: DNA-PK vs p97, dose titration
AMO-1 = assay: cells; conditions: Homo sapiens, AMO1, read-out: IC50 in vitro, AMO-1
350 cancer cell lines = assay: cells; conditions: 72 h
mTOR = mTOR vs p97, dose titration
HCT116 xenograft tumors = conditions: 100 mg/kg single oral dose, 6 hr, nude mice

In the case of `Cc1cc(OCc2nnc(SC3CCCC3)n2-c2cccnc2)ccc1-c1ccc(S(C)(=O)=O)cc1` [NMS-873], the “effect on p62 levels” value (A549 cells [1]) is reported as “decreases in p62 levels”.
With `CO/C1=C\C(C)=C\[C@@H](C)[C@@H](O)[C@@H](C)C/C(C)=C/C=C/[C@H](OC)[C@@H]([C@@H](C)[C@@H](O)[C@H](C)[C@@]2(O)C[C@@H](O)[C@H](C)[C@@H](C(C)C)O2)OC1=O` [bafilomycin A1] the “effect on p62 levels” value (A549 cells [1]) was “accumulation of p62 in peri-nuclear foci”.
With `Cc1cc2c(C(N)=O)cccc2n1-c1nc2c(c(NCc3ccccc3)n1)COCC2` [CB-5083, 1-[4-(benzylamino)-5H,7H,8H-pyrano[4,3-d]pyrimidin-2-yl]-2-methyl-1H-indole-4-carboxamide] the EC50 [2] was 730 nM, the “fold less affinity compared to p97” value (PIK3C3) was 158 fold and the “complete regressions of tumors (animals)” value (AMO-1 xenograft) was 6/12. For the same compound, the EC50 [3] was 1050 nM, the “accumulation of poly-ubiquitin or CHOP in tumor tissue” value (HCT116 or A549 tumors) was “strong and sustained induction of polyubiquitin” and the EC50 (A549 cells [4]) was 1190 nM. For the same compound, the “effect on p62 levels” value (A549 cells [1]) was “rapidly cleared from cells”, the “tumor growth of T688A mutant model” value (HCT 116 T688A xenografts) was “not inhibited” and the “inhibition of DNA-PK in cell-based assay” value (DNA-PK [5]) was “not to inhibit DNA-PK at concentrations that caused cell death”. The weight loss [6] was < 10%, the “fold less affinity compared to p97” value (DNA-PK [7]) was 29.6 fold and the IC50 (AMO-1) was 81 nM. The EC50 (350 cancer cell lines; read-out: EC50 of cell viability, lower end of range in panel) was ≥ 81 nM, the EC50 (350 cancer cell lines; read-out: EC50 of cell viability, upper end of range in panel) was ≤ 2100 nM and the “fold less affinity compared to p97” value (mTOR) was 128 fold. For the same compound, the “decrease of p62 protein levels in tumor” value (HCT116 xenograft tumors) was 60%, the “tumor growth inhibition (TGI)” value (HCT116 xenograft; 50 mg/kg po, qd) was 62% and the “tumor growth inhibition (TGI)” value (HCT116 xenograft; 100 mg/kg po, qd4/3off) was 78%.
In the case of `CC(C)n1nc(-c2ccc3oc(N)nc3c2)c2c(N)ncnc21` [INK-128], the “effect on p62 levels” value (A549 cells [1]) is reported as “decrease in p62 levels”.
For `CC(C)C[C@H](NC(=O)[C@H](Cc1ccccc1)NC(=O)c1cnccn1)B(O)O` [bortezomib], the “effect on p62 levels” value (A549 cells [1]) was “decreases in p62 levels”.
